Experimental data taken from ChEMBL document CHEMBL5150025, “Exploratory study of oxatomide derivatives with high P2X7 receptor inhibitory activity” (Bioorg Med Chem Lett, 2022).

target: T1, P2X purinoceptor 7 (Homo sapiens, UniProt Q99572); assay: Antagonist activity at P2X7 receptor in human RPMI-8226 cells assessed as inhibition of ATP-induced Ca2+ influx by fura-2 staining based assay; type: cell-based; conditions: not given
T1 sequence (Q99572 whole entry): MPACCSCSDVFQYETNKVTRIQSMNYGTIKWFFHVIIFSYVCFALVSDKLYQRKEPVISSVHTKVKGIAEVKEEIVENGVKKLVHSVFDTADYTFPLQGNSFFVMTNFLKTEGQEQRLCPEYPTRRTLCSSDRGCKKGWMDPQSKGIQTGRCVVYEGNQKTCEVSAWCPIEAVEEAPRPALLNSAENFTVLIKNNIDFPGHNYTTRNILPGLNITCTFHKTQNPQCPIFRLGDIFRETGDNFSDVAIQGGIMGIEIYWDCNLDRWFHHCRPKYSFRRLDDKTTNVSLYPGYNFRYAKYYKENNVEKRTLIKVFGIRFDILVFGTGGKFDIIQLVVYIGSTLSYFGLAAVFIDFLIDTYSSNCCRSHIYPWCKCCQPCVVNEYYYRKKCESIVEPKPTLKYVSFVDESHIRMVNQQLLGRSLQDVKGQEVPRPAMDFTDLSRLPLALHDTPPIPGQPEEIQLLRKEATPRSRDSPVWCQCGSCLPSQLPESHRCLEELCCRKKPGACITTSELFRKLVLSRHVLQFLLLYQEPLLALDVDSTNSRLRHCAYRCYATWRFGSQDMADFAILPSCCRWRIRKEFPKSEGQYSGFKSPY

SMILES | IC50 [nM]
COC(=O)c1cccc2ccn(CCCCN3CCN(C(c4ccccc4)c4ccccc4)CC3)c12 | > 10000
N#Cc1cn(CCCCN2CCN(C(c3ccccc3)c3ccccc3)CC2)c2ccccc12 | 1500
O=c1[nH]c2ccccc2n1CCCCCN1CCN(C(c2ccccc2)c2ccccc2)CC1 | 560
COc1ccc2c(ccn2CCCCN2CCN(C(c3ccccc3)c3ccccc3)CC2)c1 | > 10000
O=c1[nH]c2ccccc2n1CCCN1CCN(S(=O)(=O)c2ccc([N+](=O)[O-])cc2)CC1 | > 10000
Cc1nnnn1CCCCN1CCN(C(c2ccccc2)c2ccccc2)CC1 | 4500
O=c1[nH]c2ccccc2n1CCCN1CCN(S(=O)(=O)c2ccc(F)cc2)CC1 | > 10000
Cc1ccc2ccn(CCCCN3CCN(C(c4ccccc4)c4ccccc4)CC3)c2c1 | 6500
O=c1[nH]c2ccccc2n1CCN1CCN(C(c2ccccc2)c2ccccc2)CC1 | 950
Cc1nc2ccccc2n1CCCCN1CCN(C(c2ccccc2)c2ccccc2)CC1 | 850
Cc1cccc2ccn(CCCCN3CCN(C(c4ccccc4)c4ccccc4)CC3)c12 | 2300
Cc1cccc2c1ccn2CCCCN1CCN(C(c2ccccc2)c2ccccc2)CC1 | 5300
c1ccc(-c2nc3ccccc3n2CCCCN2CCN(C(c3ccccc3)c3ccccc3)CC2)cc1 | 1200
O=c1[nH]c2ccccc2n1C/C=C/CN1CCN(C(c2ccccc2)c2ccccc2)CC1 | > 10000
Cc1cc2ncn(CCCCN3CCN(C(c4ccccc4)c4ccccc4)CC3)c2cc1C | 770
O=c1[nH]c2ccccc2n1CCCN1CCN(C2c3ccccc3CCc3ccccc32)CC1 | 5200
N#Cc1ccc2c(ccn2CCCCN2CCN(C(c3ccccc3)c3ccccc3)CC2)c1 | 3800
O=C(C(c1ccccc1)c1ccccc1)N1CCN(CCCn2c(=O)[nH]c3ccccc32)CC1 | 7800
O=c1[nH]c2ccccc2n1CCCN1CCC(C(O)(c2ccccc2)c2ccccc2)CC1 | 7500
O=c1[nH]c2ccccc2n1CCCN1CCN(C(c2ccccc2)c2ccccc2)CC1 [OXATOMIDE] | 830
O=c1[nH]c2ccccc2n1CCCN1CCC(=C(c2ccccc2)c2ccccc2)CC1 | 2400
Cc1ccc(S(=O)(=O)N2CCN(CCCn3c(=O)[nH]c4ccccc43)CC2)cc1 | > 10000
Cc1nccn1CCCCN1CCN(C(c2ccccc2)c2ccccc2)CC1 | 3400
c1ccc(C(c2ccccc2)N2CCN(CCCCn3cncn3)CC2)cc1 | > 10000
c1ccc(-c2nnnn2CCCCN2CCN(C(c3ccccc3)c3ccccc3)CC2)cc1 | 3200

Molecules with a lower IC50, results first:

IC50 [nM] | SMILES
480 | c1ccc(C(c2ccccc2)N2CCN(CCCCn3nnc4ccccc43)CC2)cc1
460 | c1ccc(C(c2ccccc2)N2CCN(CCCCn3ccc4cnccc43)CC2)cc1
320 | c1ccc(C(c2ccccc2)N2CCN(CCCCn3ccc4ncccc43)CC2)cc1
240 | c1ccc(C(c2ccccc2)N2CCN(CCCCn3ccc4ccncc43)CC2)cc1
190 | c1ccc(C(c2ccccc2)N2CCN(CCCCn3ncc4ccccc43)CC2)cc1
180 | c1ccc(C(c2ccccc2)N2CCN(CCCCn3ccc4cccnc43)CC2)cc1
180 | c1ccc(C(c2ccccc2)N2CCN(CCCCn3cnc4ccccc43)CC2)cc1
180 | O=c1[nH]c2ccccc2n1CCCCN1CCN(C(c2ccccc2)c2ccccc2)CC1
150 | Fc1cccc2c1ccn2CCCCN1CCN(C(c2ccccc2)c2ccccc2)CC1
130 | Fc1cc2ccn(CCCCN3CCN(C(c4ccccc4)c4ccccc4)CC3)c2cc1F
120 | c1ccc(C(c2ccccc2)N2CCN(CCCCn3ccc4ccccc43)CC2)cc1
120 | Fc1ccc2c(ccn2CCCCN2CCN(C(c3ccccc3)c3ccccc3)CC2)c1
110 | Fc1ccc2ccn(CCCCN3CCN(C(c4ccccc4)c4ccccc4)CC3)c2c1

target: T2, P2X purinoceptor 7 (Homo sapiens) (UniProt Q99572); assay: Antagonist activity at P2X7 receptor in human RPMI-8226 cells assessed as inhibition of ATP-induced Ca2+ influx at 10 uM by fura-2 staining based assay relative to control; type: cell-based; conditions: filed as antagonist
T2 sequence (whole entry): T1 sequence (Q99572 whole entry)

SMILES | inhibition [%]
COc1ccc2c(ccn2CCCCN2CCN(C(c3ccccc3)c3ccccc3)CC2)c1 | 54
O=c1[nH]c2ccccc2n1CCCN1CCN(S(=O)(=O)c2ccc([N+](=O)[O-])cc2)CC1 | 72
O=c1[nH]c2ccccc2n1CCCN1CCN(S(=O)(=O)c2ccc(F)cc2)CC1 | 87
O=c1[nH]c2ccccc2n1C/C=C/CN1CCN(C(c2ccccc2)c2ccccc2)CC1 | 81
Cc1ccc(S(=O)(=O)N2CCN(CCCn3c(=O)[nH]c4ccccc43)CC2)cc1 | 64
c1ccc(C(c2ccccc2)N2CCN(CCCCn3cncn3)CC2)cc1 | 87
